Test results taken from patent US12603148B2, “Method for analysis of omics data” (Max-Delbrück-Centrum für Molekulare Medizin in der …, priority 2021, dated 2026).

System: patient derived xenografts (PDX) from localized breast cancer tumors
Test: Drug response of breast cancer patient derived xenografts (complete vs non/incomplete response)
Assay type: in vivo
Settings: breast cancer PDX library; AC tested on 37 PDXs, Olaparib on 33 PDXs
Description: A library of 37 patient derived xenografts (PDX) from localized breast cancer tumors were assayed using RNA-seq to determine gene expression profiles and Exome-seq to detect somatic mutations. AC (a combination of the chemotherapies Adriamycin (doxorubicin) and cyclophosphamide) was tested on the 37 PDXs, and 33 were also treated using Olaparib (a PARP inhibitor). The responses of the PDX to the treatments are categorized into Complete Response and non/incomplete response. […] Thus, the complete response to Olaparib results in 28 False and 5 True samples. The complete response to AC results in 26 False and 11 True samples.

O=C(c1cc(Cc2n[nH]c(=O)c3ccccc23)ccc1F)N1CCN(C(=O)C2CC2)CC1 [Olaparib]
samples showing a complete response: 5 samples
samples showing non- or partial responses: 28 samples
